Test results as given in US20240034992A1, “DOPAMINERGIC NEURONS COMPRISING MUTATIONS AND METHODS OF USE THEREOF” (FUJIFILM Cellular Dynamics, Inc., priority 2021, published 2024).

Columns and labels:
[1] = system: AHN DA neurons; test: Calcium imaging (Ca oscillation, FDSS/μCELL) of DA neuron spheroids, AHN; assay type: cell-based, human; details: 10 uM for one week
Procedure: (§1) For calcium imaging experiments, DA neurons were cultured as spheroids (50,000/well) in the 384 U bottom ULA plates (S-bio plates) and fed with Brainphys complete media (Brainphys basal media+neural supplement A+NSS). […] On day 14 post-plating (7 days post-treatment) cells were loaded with 1× EarlyTOX cardiotoxicity kit and after 2 hours of incubation at 37° C., Ca2+ oscillation captured using FDSS/μCELL instrument for 20 minutes. Waveform software was used for quantification of Ca oscillation and data were analyzed using GraphPad Prism.
(§2) Calcium oscillation traces of day 14 post plated DA neurons were captured using FDSS/μCELL instrument for 20 minutes. […] Calcium transient properties including (FIG. 13B) number of peaks, (FIG. 13C) peak rates per minute and (FIG. 13D) area under the curve/peak (average) were quantified for all wells (repeats) of each cell line using Waveform software.

[2] = target: T1, GCase (Homo sapiens, UniProt P04062); test: GCase activity assay after compound treatment, AHN iPSC-derived DA neurons; assay type: cell-based; details: 10 uM for two weeks, day 21 post thaw, from 165052 (DMSO vehicle)
T1 construct: endogenous in cells; host or cells: DA neurons differentiated from LRRK2 patient, SNCA A53T engineered or AHN (healthy donor) iPSCs (lysate)
T1 sequence (P04062 40-536): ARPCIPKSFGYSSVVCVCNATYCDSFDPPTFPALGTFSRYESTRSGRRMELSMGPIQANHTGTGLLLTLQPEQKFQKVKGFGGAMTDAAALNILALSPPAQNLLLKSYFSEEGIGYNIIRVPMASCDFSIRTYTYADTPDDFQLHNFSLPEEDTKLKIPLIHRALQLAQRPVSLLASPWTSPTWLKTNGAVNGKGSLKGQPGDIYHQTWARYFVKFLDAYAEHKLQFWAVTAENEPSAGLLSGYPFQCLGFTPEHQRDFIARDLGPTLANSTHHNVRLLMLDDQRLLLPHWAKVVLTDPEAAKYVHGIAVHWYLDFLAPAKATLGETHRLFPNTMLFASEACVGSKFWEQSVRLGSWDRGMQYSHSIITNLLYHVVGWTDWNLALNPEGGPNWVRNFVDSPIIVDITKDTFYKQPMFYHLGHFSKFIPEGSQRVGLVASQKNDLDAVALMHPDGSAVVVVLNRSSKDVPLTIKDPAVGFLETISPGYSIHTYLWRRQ
Procedure: (§3) The cells were harvested, lysed and centrifuged at 20,000×g for 20 min at 4° C. […] Recombinant human Glucosylceramidase/GBA (rhGBA) (R&D, 7410-GHB-020) was used as a positive control. Samples were incubated for 40 minutes at 37° C. and reaction stopped by adding equivolume 1M glycine, pH 12.5. 100 μl of reactions were loaded into white 96-well plates (Nunc, #136101) and fluorescence (ex=355 nm, em=460, 0.1 s) signal were measured in the CLARIOstar plate reader (Molecular Devices). Relative fluorescent units (RFUs) from non CBE-treated lysates were calculated by subtracting the signal from the corresponding CBE-treated lysates. […] DA neurons were cultured at high density (200,000/well) in the 96 well plates. Gcase activity was measured from DA neurons derived from GBA, LRRK2 and AHN iPSCs after compound treatment. […] Total protein in the lysate was quantified using Pierce BCA Protein Assay Kit (ThermoFisher). […] Single compounds were tested both for acute exposure (3 days) and chronic exposure (two weeks).

[3] = system: SNCA DA neurons; test: Calcium imaging (Ca oscillation, FDSS/μCELL) of DA neuron spheroids, SNCA; assay type: cell-based, human; details: 10 uM for one week
Procedure: as §1, §2

[4] = system: LRRK2 DA neurons; test: Calcium imaging (Ca oscillation, FDSS/μCELL) of DA neuron spheroids, LRRK2; assay type: cell-based, human
Procedure: as §1, §2

[5] = target: T1, GCase; test: GCase activity assay after compound treatment, LRRK2 (G2019S) iPSC-derived DA neurons; assay type: cell-based; details: 10 uM for two weeks, day 21 post thaw
Procedure: as §3

[6] = system: GCase; test: GCase activity assay after compound treatment, GBA (N370S) iPSC-derived DA neurons; assay type: cell-based, human; details: for GCase activity (mean±SD): chronic treatment (two weeks) 10 uM, DMSO=90302±3986
Procedure: The cells were harvested, lysed and centrifuged at 20,000×g for 20 min at 4° C. […] Recombinant human Glucosylceramidase/GBA (rhGBA) (R&D, 7410-GHB-020) was used as a positive control. Samples were incubated for 40 minutes at 37° C. and reaction stopped by adding equivolume 1M glycine, pH 12.5. 100 μl of reactions were loaded into white 96-well plates (Nunc, #136101) and fluorescence (ex=355 nm, em=460, 0.1 s) signal were measured in the CLARIOstar plate reader ([…]). Relative fluorescent units (RFUs) from non CBE-treated lysates were calculated by subtracting the signal from the corresponding CBE-treated lysates. […] DA neurons were cultured at high density (200,000/well) in the 96 well plates. Gcase activity was measured from DA neurons derived from GBA, LRRK2 and AHN iPSCs after compound treatment. […] Total protein in the lysate was quantified using Pierce BCA Protein Assay Kit (ThermoFisher). GCase activity can be used as a read out for compound screening with disease neurons where AHN serve as a control and compounds that could rescue the GCase activity would be considered a positive hit. […] Single compounds were tested both for acute exposure (3 days) and chronic exposure (two weeks).

[7] = target: T1, GCase; test: GCase activity assay after compound treatment, SNCA A53T iPSC-derived DA neurons; assay type: cell-based; details: 10 uM for two weeks, day 21 post thaw
Procedure: as §3

Gcase activity (Mean) [2]: 171669
increase in Gcase activity [5]: 18%
GCase activity (mean±SD) ([6]; combinatorial screen, GBA cells): highest GCase activity
increase in Gcase activity [7]: 14%
Compound: Nc1c(Br)cc(Br)cc1CN[C@H]1CC[C@H](O)CC1 [Ambroxol]
effect on Ca oscillation compared to the untreated AHN DA neurons ([1]; AHN DA neurons): caused hyperexcitability
number of peaks (mean±SD) ([1]; AHN, day 14 post plating, 20 minutes, untreated 21.55±3): 33.75±7.14
Peak rate (mean±SD) ([1]; AHN, day 14 post plating, untreated 1.12±0.16): 1.74±0.32 peaks per minute
effect on Ca oscillation compared to the untreated AHN DA neurons ([3]; SNCA DA neurons): caused hyperexcitability
number of peaks (mean±SD) ([3]; SNCA, day 14 post plating, 20 minutes, untreated 24.5±5.3): 33.8±1.5
Peak rate (mean±SD) ([3]; SNCA, day 14 post plating, untreated 1.26±0.3): 1.61±0.12 peaks per minute
Peak rate (mean±SD) ([4]; LRRK2, 10 uM for one week, day 14 post plating, untreated 1.52±0.16): 1.89±0.18 peaks per minute
effect on Ca oscillation compared to the untreated AHN DA neurons ([4]; LRRK2 DA neurons, 10 uM for one week): caused hyperexcitability
increase in Gcase activity ([6]; GBA neurons, 10 uM for two weeks, day 21 post thaw): 12%
increase in Gcase activity ([6]; combinatorial screen, GBA cells, chronic treatment 10 uM, compared to DMSO): 48%
GCase activity (mean±SD) ([6]; combinatorial screen, GBA cells, listed as ABX): 133659±10542
